Key:
[1] = Solubility in water at 20° C.; format: physicochemical
[2] = Stability of aqueous catalyst salt solutions (UV/Vis of 1000× diluted solutions); format: physicochemical; details: 2 weeks; for precipitate formation: pH 2 to 5, 37° C.
Experimental: Stability of aqueous solutions of chloride, sulphate and acetate salts are provided. Solutions of the bleach catalyst with chloride, sulphate and acetate anion were brought to pH 2, 3, 4 and 5 by hydrochloric acid, sulphuric acid and acetic acid respectively. For the acetate this could only give pH 5. For the lower pH values sulphuric acid was used in the case of acetate. The solutions were kept at 37° C. and after 2 weeks the stability was monitored from the absorptions in the UV/Vis spectra of 1000× diluted solutions.

[3] = Bleaching of softwood D0 pulp with H2O2 and catalyst, whiteness; details: 2.5 microM catalyst, 10 kg/t H2O2, 8 kg/t NaOH, 50° C., 1 h, 5% consistency; SD 0.3 points
Experimental: Softwood chemical mill pulp obtained after the D0 bleaching stage (abbreviated as softwood D0 pulp) was used. The bleaching experiments were conducted on small scale in 100 ml vessels using the pulps at 5% consistency (i.e., 5% oven dry wood pulp; 95% aqueous bleaching liquor). The mixture contained 2.5 microM of the catalyst (as chloride, sulfate, acetate and PF6 salts—see Table), 1 kg/t of MgSO4, 8 kg/t of NaOH and 10 kg/t of H2O2 (kg/t: kg chemicals per ton oven dry pulp). The mixture was manually stirred to ensure good distribution of the bleaching chemicals. Then the vessel was placed in a water bath and stirred regularly at 50° C. for 1 h. All experiments were carried out at least 6 times. As a reference the experiment was conducted without catalyst. The dosages and exact reaction conditions are given in the sections below. After the allocated bleaching times the pulp batches were removed from the vessels, filtered using a Buchner funnel, and washed with 100 ml of water. From the resultant samples of bleached pulp 4×4 cm discs were made having a flat surface on one side. The softwood D0 pulp samples were dried using a L&W Rapid Dryer (Lorentzen and Wetter) at 90° C. for 20 minutes. Whiteness of the bleached pulps was determined using L, a*, b* values as defined by CIE (Commission Internationale de l'Eclairage) of the dried pad was measured using a Minolta spectrophotometer.

| solubility in water [1] | % (UV/Vis) remaining ([2]; pH 2, 37° C.) [%] | precipitate formation [2] | % (UV/Vis) remaining ([2]; pH 3, 37° C.) [%] | % (UV/Vis) remaining ([2]; pH 4, 37° C.) [%] | % (UV/Vis) remaining ([2]; pH 5, 37° C.) [%] | water solubility [1] [g per liter] | SMILES | Whiteness [3] |
| --- | --- | --- | --- | --- | --- | --- | --- | --- |
| more than 70 gram/Liter | 87 | (No precipitate is formed) | 91 | 93 | 95 | – | CC(=O)[O-].CC(=O)[O-].CN1CCN(C)CCN(C)CC1.CN1CCN(C)CCN(C)CC1.[Mn+4].[Mn+4].[O-2].[O-2].[O-2] [[Mn2O3(Me3—TACN)2]•(OAc)2, [Mn2O3(Me3-TACN)2].(OAc)2] | 84.0 |
| 1.08 % (w/w) | – | – | – | – | – | 10.8 | CN1CCN(C)CCN(C)CC1.CN1CCN(C)CCN(C)CC1.F[P-](F)(F)(F)(F)F.F[P-](F)(F)(F)(F)F.[Mn+4].[Mn+4].[O-2].[O-2].[O-2] [[Mn2O3(Me3—TACN)2]•(PF6)2, [Mn2O3(Me3-TACN)2].(PF6)2] | 84.4 |
| – | 100 | (Precipitate is formed at all pH's) | 100 | 97 | 94 | – | CN1CCN(C)CCN(C)CC1.CN1CCN(C)CCN(C)CC1.[Cl-].[Cl-].[Mn+4].[Mn+4].[O-2].[O-2].[O-2] [[Mn2O3(Me3—TACN)2]•Cl2, [Mn2O3(Me3-TACN)2].(Cl)2] | 84.3 |
| – | 78 | (Precipitate only at pH = 5) | 96 | 94 | 98 | – | CN1CCN(C)CCN(C)CC1.CN1CCN(C)CCN(C)CC1.O=S(=O)([O-])[O-].[Mn+4].[Mn+4].[O-2].[O-2].[O-2] [[Mn2O3(Me3—TACN)2]•SO4, [Mn2O3(Me3-TACN)2].SO4] | 84.1 |

— patent US8722608B2, “Process of bleaching” (Conopco, Inc., priority 2005, dated 2014)
